Consider seven compounds from ChEMBL document CHEMBL1133963, “Furans with basic side chains: synthesis and biological evaluation of a novel series of antagonists with selectivity for the estrogen receptor alpha” (Bioorg Med Chem Lett, 2001).

Molecules are shown by their SMILES.

The target in assay [1] is T1, Estrogen receptor (Homo sapiens, UniProt P03372).
T1 sequence (P03372 whole entry): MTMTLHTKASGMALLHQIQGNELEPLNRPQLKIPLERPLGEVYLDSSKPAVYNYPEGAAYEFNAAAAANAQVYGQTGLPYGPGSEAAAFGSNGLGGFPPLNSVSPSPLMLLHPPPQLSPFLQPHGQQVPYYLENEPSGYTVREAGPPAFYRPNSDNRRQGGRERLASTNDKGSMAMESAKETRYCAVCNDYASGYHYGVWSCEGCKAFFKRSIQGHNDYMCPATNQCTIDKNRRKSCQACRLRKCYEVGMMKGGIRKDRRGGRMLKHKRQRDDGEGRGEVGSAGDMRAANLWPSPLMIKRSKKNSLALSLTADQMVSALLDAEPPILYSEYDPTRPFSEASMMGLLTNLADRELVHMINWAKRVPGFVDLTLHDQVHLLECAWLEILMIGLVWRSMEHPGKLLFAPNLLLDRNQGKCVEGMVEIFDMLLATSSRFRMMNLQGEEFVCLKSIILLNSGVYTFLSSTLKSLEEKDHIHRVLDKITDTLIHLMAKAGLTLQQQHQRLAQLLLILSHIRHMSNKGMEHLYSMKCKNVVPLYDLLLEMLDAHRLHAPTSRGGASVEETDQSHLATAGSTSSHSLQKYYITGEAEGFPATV
Nature of the assay: Displacement of [3H]estradiol from Estrogen receptor alpha.

In assay [2] the target is T2, Estrogen receptor beta (Homo sapiens, UniProt Q92731). Nature of the assay: Displacement of [3H]estradiol from Estrogen receptor beta.
T2 sequence (Q92731 whole entry): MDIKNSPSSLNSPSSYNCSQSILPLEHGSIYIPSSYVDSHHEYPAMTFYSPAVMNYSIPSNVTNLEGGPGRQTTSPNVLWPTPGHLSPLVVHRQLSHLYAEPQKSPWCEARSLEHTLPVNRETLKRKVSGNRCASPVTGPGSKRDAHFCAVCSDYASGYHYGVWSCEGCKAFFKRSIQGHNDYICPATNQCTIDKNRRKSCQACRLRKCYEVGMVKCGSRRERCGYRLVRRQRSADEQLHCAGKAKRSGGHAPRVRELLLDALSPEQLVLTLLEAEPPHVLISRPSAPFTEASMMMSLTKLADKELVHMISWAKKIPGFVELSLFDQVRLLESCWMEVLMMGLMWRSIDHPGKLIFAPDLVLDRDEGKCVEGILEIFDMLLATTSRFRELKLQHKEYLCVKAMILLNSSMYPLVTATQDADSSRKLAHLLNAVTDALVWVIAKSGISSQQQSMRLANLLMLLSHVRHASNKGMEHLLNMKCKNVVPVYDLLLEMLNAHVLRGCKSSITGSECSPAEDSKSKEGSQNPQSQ
Assay [3] addresses T2, Estrogen receptor beta. Nature of the assay: Inhibitory activity against Estrogen receptor beta.
The target in assay [4] is T1, Estrogen receptor. Nature of the assay: Inhibitory activity against Estrogen receptor alpha.

Turning to `Cc1c(-c2ccc(O)cc2)oc(-c2ccc(O)cc2)c1-c1ccc(OCCN2CCCCC2)cc1`, the RBA on Estrogen receptor [1] came to 32%; at Estrogen receptor beta [2] it was 0.47%.
For `CCc1c(-c2ccc(OCCN3CCCCC3)cc2)oc(-c2ccc(O)cc2)c1-c1ccc(O)cc1` the same measures were 0.36% and 0.06%.
For `CCc1c(-c2ccc(O)cc2)oc(-c2ccc(O)cc2)c1-c1ccc(OC)cc1` the same measures were 2.5% and 0.91%.
Take `CCc1c(-c2ccc(O)cc2)oc(-c2ccc(O)cc2)c1-c1ccc(OCCN2CCCCC2)cc1`: the results for the IC50 against Estrogen receptor beta [3] and against Estrogen receptor [4] were 480 nM and 65 nM, respectively. For the same compound, the figures for the RBA on Estrogen receptor [1] and at Estrogen receptor beta [2] were 75% and 3.1%, respectively.
Consider `CCc1c(-c2ccc(O)cc2)oc(-c2ccccc2)c1-c1ccc(OCCN2CCCCC2)cc1`, for which the RBA is 3.8% at Estrogen receptor [1] and 0.43% at Estrogen receptor beta [2].
For `CCc1c(-c2ccccc2)oc(-c2ccc(O)cc2)c1-c1ccc(OCCN2CCCCC2)cc1` the same measures were 60% and 20%.
Take `CCCc1c(-c2ccc(O)cc2)oc(-c2ccc(O)cc2)c1-c1ccc(OCCN2CCCCC2)cc1`: the RBA worked out at 34% on Estrogen receptor [1] and 4% at Estrogen receptor beta [2].
